# Measured values from patent US8263606B2 (Xenon Pharmaceuticals Inc., priority 2008, dated 2012).
# Key:
# CYP3A4 = CYP3A4 (Homo sapiens, UniProt P08684); experiment: Cytochrome P450 (CYP450) Inhibition Assay, CYP3A4 (Vivid fluorescence, BOMCC substrate); conditions: human, P450 Baculosomes (recombinant CYP3A4), probe BOMCC (Vivid substrate)
# sodium channel = experiment: Guanidine influx assay (14C-guanidine radiotracer flux, in vitro); type: cell-based, human or rat; conditions: guanidine influx assay using a known cell line that expresses a sodium channel
# Method in brief: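 Cells (human/rat Nav, endogenous or recombinant), ~100,000/well, 20-24 h 37 °C/5% CO2. Wash LNHBSS (150 mM choline Cl, HEPES, glucose). Add cpd + aconitine/14C-guanidine mix, RT. Wash, dry, scintillation count. IC50: 4-PL fit; selectivity as IC50 ratio vs reference channel, e.g. Nav1.5.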
# [1] = tested on: inactivated state of the channel of interest (sodium channel); experiment: Electrophysiological assay (whole cell voltage clamp, in vitro); type: cell-based; conditions: affinity for the inactivated state of the channel of interest
# Description: Cells expressing the channel of interest are cultured in DMEM growth media (Gibco) with 0.5 mg/mL G418, +/−1% PSG, and 10% heat-inactivated fetal bovine serum at 37° C. and 5% CO2. For electrophysiological recordings, cells are plated on 10 mm dishes.
# Whole cell recordings are examined by established methods of whole cell voltage clamp (Bean et al., op. cit.) using an Axopatch 200B amplifier and Clampex software (Axon Instruments, Union City, Calif.). All experiments are performed at ambient temperature. Electrodes are fire-polished to resistances of 2-4 Mohms Voltage errors and capacitance artifacts are minimized by series resistance compensation and capacitance compensation, respectively. Data are acquired at 40 kHz and filtered at 5 kHz. The external (bath) solution consists of: NaCl (140 mM), KCl (5 mM), CaCl2 (2 mM), MgCl2 (1 mM), HEPES (10 mM) at pH 7.4. The internal (pipette) solution consists of (in mM): NaCl (5), CaCl2 (0.1), MgCl2 (2), CsCl (10), CsF (120), HEPES (10), EGTA (10), at pH 7.2.
# To estimate the steady-state affinity of compounds for the resting and inactivated state of the channel (Kr and Ki, respectively), 12.5 ms test pulses to depolarizing voltages from −60 to +90 mV from a holding potential of −120 m V is used to construct current-voltage relationships (I-V curves). A voltage near the peak of the IV-curve (−30 to 0 m V) is used as the test pulse throughout the remainder of the experiment. Steady-state inactivation (availability) curves are then constructed by measuring the current activated during a 8.75 ms test pulse following 1 second conditioning pulses to potentials ranging from −120 to −10 m V.
# The steady-state voltage-dependence of binding of a compound to a sodium channel is determined by measuring the blockage of the ionic current at two holding potentials. Binding to rested-state channels is determined by using a holding potential of −120 mV, so that maximal availability is achieved. Binding to inactivated-state channels is evaluated at a holding potential such that only 10% of the channels are available to open. The membrane potential is held at this voltage for at least 10 seconds so that drug binding can equilibrate.
# The apparent dissociation constant at each voltage is calculated with the equation:
# [formula] where Kd is the dissociation constant (either Kr or Ki), and [Drug] is the concentration of the test compound.
# The Example numbers provided in Table 3 correspond to the Examples herein: […]
# CYP3A4, sequence (P08684 whole entry): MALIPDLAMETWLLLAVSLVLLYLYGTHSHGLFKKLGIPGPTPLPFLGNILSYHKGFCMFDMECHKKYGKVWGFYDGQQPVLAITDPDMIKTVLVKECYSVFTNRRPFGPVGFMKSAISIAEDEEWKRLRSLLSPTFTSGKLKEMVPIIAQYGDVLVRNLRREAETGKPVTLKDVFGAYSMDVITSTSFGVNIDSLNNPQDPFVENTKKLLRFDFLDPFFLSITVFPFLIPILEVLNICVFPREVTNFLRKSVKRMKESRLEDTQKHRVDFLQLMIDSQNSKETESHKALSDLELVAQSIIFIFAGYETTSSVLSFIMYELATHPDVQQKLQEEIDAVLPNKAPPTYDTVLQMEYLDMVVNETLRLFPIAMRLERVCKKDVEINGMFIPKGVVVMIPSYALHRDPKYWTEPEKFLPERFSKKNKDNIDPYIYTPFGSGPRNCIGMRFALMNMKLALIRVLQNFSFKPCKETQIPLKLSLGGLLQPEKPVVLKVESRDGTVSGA
Structure (SMILES),melting point [°C],inhibition at 10 µM (CYP3A4) [%],IC50 (sodium channel; activity level class) [nM],Ki [1] [nM],IC50 (sodium channel) [nM]
"O=C1N(C[C@H]2COCCO2)c2ccccc2[C@@]12COc1cc3c(cc12)OCCO3 [Example 8.6, (8R)-1′-[(2S)-1,4-dioxan-2-ylmethyl]-2,3-dihydrospiro[furo[2,3-g][1,4]benzodioxine-8,3′-indol]-2′(1′H)-one]",207 to 209,< 50,1000 to 10000,> 300,–
"N#Cc1cccc(CN2C(=O)C3(COc4cc5c(cc43)CCO5)c3ccccc32)c1 (centres unmarked) [Example 4.22, 3-[(2′-oxo-5,6-dihydrospiro[benzo[1,2-b:5,4-b′]difuran-3,3′-indol]-1′(2′H)-yl)methyl]benzonitrile]",187 to 193,> 50,1 to 100,> 300,–
"O=C1N(C[C@@H]2COCCO2)c2ccccc2[C@]12COc1cc3c(cc12)OCCO3 [Example 8.8, (8S)-1′-[(2R)-1,4-dioxan-2-ylmethyl]-2,3-dihydrospiro[furo[2,3-g][1,4]benzodioxine-8,3′-indol]-2′(1′H)-one]",207 to 210,< 50,1 to 100,< 300,–
"O=C1N(Cc2ccccn2)c2ccccc2[C@]12COc1cc3c(cc12)CCO3 [Example 5.6, (3S)-1′-(pyridin-2-ylmethyl)-5,6-dihydrospiro[benzo[1,2-b:5,4-b′]difuran-3,3′-indol]-2′(1′H)-one]",84 to 85,< 50,1 to 100,> 300,–
"CN(C)C(=O)c1ccc(CN2C(=O)C3(COc4cc5c(cc43)OCCO5)c3ccccc32)o1 (centres unmarked) [Example 11.33, N,N-dimethyl-5-[(2′-oxo-2,3-dihydrospiro[furo[2,3-g][1,4]benzodioxine-8,3′-indol]-1′(2′H)-yl)methyl]furan-2-carboxamide]",224 to 226,> 50,–,< 300,100 to 1000
"Cc1nc(-c2ccc(CN3C(=O)C4(COc5cc6c(cc54)CCO6)c4ccccc43)cc2)no1 (centres unmarked) [Example 11.14, 1′-[4-(5-methyl-1,2,4-oxadiazol-3-yl)benzyl]-5,6-dihydrospiro[benzo[1,2-b:5,4-b′]difuran-3,3′-indol]-2′(1′H)-one]",185 to 186,< 50,–,< 300,1 to 100
"O=C1Nc2ccccc2C12COc1ccc3nonc3c12 (centres unmarked) [Example 3.41, spiro[furo[3,2-e][2,1,3]benzoxadiazole-8,3′-indol]-2′(1′H)-one]",> 220,< 50,1000 to 10000,> 300,–
"O=C1N(Cc2ccncn2)c2ccccc2C12COc1cc3c(cc12)CCO3 (centres unmarked) [Example 9.6, 1-(pyrimidin-4-ylmethyl)-5,6-dihydrospiro[benzo[1,2-b:5,4-b′]difuran-3,3′-indol]-2′(1′H)-one]",158 to 160,< 50,1 to 100,> 300,–
"O=C1N(Cc2ccc(C(F)(F)F)o2)c2ccccc2[C@@]12COc1cc3c(cc12)CCO3 [Example 5.5, (3R)-1′-{[5-(trifluoromethyl)furan-2-yl]methyl}-5,6-dihydrospiro[benzo[1,2-b:5,4-b′]difuran-3,3′-indol]-2′(1′H)-one]",68 to 70,> 50,1000 to 10000,> 300,–
"O=C1N(Cc2cccnc2)c2ccccc2C12COc1cc3c(cc12)OCCO3 (centres unmarked) [Example 1.2, 1-(pyridin-3-ylmethyl)-2,3-dihydrospiro[furo[2,3-g][1,4]benzodioxine-8,3′-indol]-2′(1′H)-one]",142 to 143,< 50,1 to 100,> 300,–
"CC(C)CCN1C(=O)C2(COc3cc4c(cc32)OCCO4)c2ccccc21 (centres unmarked) [Example 4.36, 1′-(3-methylbutyl)-2,3-dihydrospiro[furo[2,3-g][1,4]benzodioxine-8,3′-indol]-2′(1′H)-one]",134 to 137,< 50,1 to 100,< 300,–
"CCCCCN1C(=O)C2(COc3cc4c(cc32)OCCO4)c2ccccc21 (centres unmarked) [Example 8.4, 1′-pentyl-2,3-dihydrospiro[furo[2,3-g][1,4]benzodioxine-8,3′-indol]-2′(1′H)-one]",129 to 130,> 50,1 to 100,< 300,–
"O=C1N(Cc2ccccn2)c2ccccc2[C@@]12COc1cc3c(cc12)CCO3 [Example 5.4, (3R)-1-(pyridin-2-ylmethyl)-5,6-dihydrospiro[benzo[1,2-b:5,4-b′]difuran-3,3′-indol]-2′(1′H)-one]",154 to 156,< 50,1000 to 10000,> 300,–
"O=C1N(C[C@@H]2CCCO2)c2ccccc2C12COc1cc3c(cc12)OCCO3 (stereo partly drawn) [Example 4.43, 1-[(2S)-tetrahydrofuran-2-ylmethyl]-2,3-dihydrospiro[furo[2,3-g][1,4]benzodioxine-8,3′-indol]-2′(1′H)-one]",173 to 175,< 50,1 to 100,> 300,–
"O=C1N(Cc2ccc(C(F)(F)F)o2)c2ccccc2C12COc1cc3c(cc12)OC(F)(F)O3 (centres unmarked) [Example 2.34, 2,2-difluoro-1′-{[5-(trifluoromethyl)furan-2-yl]methyl}spiro[furo[2,3-f][1,3]benzodioxole-7,3′-indol]-2′(1′H)-one]",59 to 60,> 50,100 to 1000,> 300,–
"O=C1N(CC2COCCO2)c2ccccc2C12COc1cc3c(cc12)OCCO3 (centres unmarked) [Example 4.45, 1′-(1,4-dioxan-2-ylmethyl)-2,3-dihydrospiro[furo[2,3-g][1,4]benzodioxine-8,3′-indol]-2′(1′H)-one]",160 to 165,< 50,1 to 100,> 300,–
"O=C1N(Cc2ccc3nsnc3c2)c2ccccc2C12COc1cc3c(cc12)CCO3 (centres unmarked) [Example 4.28, 1′-(2,1,3-benzothiadiazol-5-ylmethyl)-5,6-dihydrospiro[benzo[1,2-b:5,4-b′]difuran-3,3′-indol]-2′(1′H)-one]",162 to 164,> 50,1 to 100,< 300,–
"Cc1nc(-c2ccc3c(c2)OCC32C(=O)N(Cc3ccccn3)c3ccccc32)no1 (centres unmarked) [Example 11.85, 6-(5-methyl-1,2,4-oxadiazol-3-yl)-1′-(pyridin-2-ylmethyl)spiro[1-benzofuran-3,3′-indol]-2′(1′H)-one]",147 to 148,< 50,–,> 300,100 to 1000
"O=C1N(Cc2ccc(C(F)(F)F)o2)c2ccccc2[C@@]12COc1cc3c(cc12)OCCO3 [Example 4.49, (R)-1′-{[5-(trifluoromethyl)furan-2-yl]methyl}-2,3-dihydrospiro[furo[2,3-g][1,4]benzodioxine-8,3′-indol]-2′(1′H)-one]",64 to 68,> 50,1 to 100,< 300,–
"Cc1nc(-c2cccc(CN3C(=O)C4(COc5cc6c(cc54)CCO6)c4ccccc43)c2)no1 (centres unmarked) [Example 11.27, 1′-[3-(5-methyl-1,2,4-oxadiazol-3-yl)benzyl]-5,6-dihydrospiro[benzo[1,2-b:5,4-b′]difuran-3,3′-indol]-2′(1′H)-one]",209 to 213,> 50,–,< 300,1 to 100
